In US8927571B2, “Pyrido[4,3-B]indoles and methods of use” (Medivation Technologies, Inc., priority 2009, dated 2015):

Molecular target: T1, human recombinant serotonin (5-Hydroxytryptamine) 5-HT2A receptor (Homo sapiens, UniProt P28223)
T1 construct: expressed in transfected cells; host or cells: Chinese hamster ovary (CHO-K1) cells
Assay: Serotonin 5-HT2A radioligand binding assay ([3H]Ketanserin)
Settings: 0.5 nM [3H]Ketanserin, read-out: Percent Inhibition of ligand binding, Serotonin (1 μM) 5-HT2A
Method: Compounds of the invention were incubated with 0.5 nM [^3H]Ketanserin for 60 min at 25° C. Non-specific binding was estimated in the presence of 1 μM Mianserin. Receptor proteins were filtered and washed, the filters were then counted to determine [^3H]Ketanserin specifically bound. Compounds were screened at 1 μM or lower, using 1% DMSO as vehicle. Biochemical assay results are presented as the percent inhibition of specific binding in Table 4.

T1 sequence (P28223 whole entry): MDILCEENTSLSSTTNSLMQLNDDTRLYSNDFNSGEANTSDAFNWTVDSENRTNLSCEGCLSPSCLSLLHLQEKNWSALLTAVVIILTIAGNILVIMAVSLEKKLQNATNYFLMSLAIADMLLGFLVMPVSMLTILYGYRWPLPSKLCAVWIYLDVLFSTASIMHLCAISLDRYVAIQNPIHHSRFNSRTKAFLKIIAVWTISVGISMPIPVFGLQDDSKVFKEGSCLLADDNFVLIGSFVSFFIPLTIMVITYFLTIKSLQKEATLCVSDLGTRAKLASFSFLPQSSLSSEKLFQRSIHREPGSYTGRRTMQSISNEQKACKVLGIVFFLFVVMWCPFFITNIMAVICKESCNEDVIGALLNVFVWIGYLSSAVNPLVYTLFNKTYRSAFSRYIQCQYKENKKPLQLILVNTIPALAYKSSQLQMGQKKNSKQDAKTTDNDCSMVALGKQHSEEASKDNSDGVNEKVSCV

Cc1ccc2c(c1)c1c(n2CC(O)(c2ccccc2)c2ccc(F)cc2)CCN(C)C1 (stereo not shown) [Compound 1, 2-(2,8-dimethyl-3,4-dihydro-1H-pyrido[4,3-b]indol-5(2H)-yl)-1-(4-fluorophenyl)-1-phenylethanol]
inhibition at 1 µM: 97%
